Assay: xn = mol fraction of the nth substance listed
Details: 101 kPa, Liquid; for speed of sound: Pulse-echo method; for mass density: Vibrating tube method; for viscosity: Concentric cylinders viscometry

CC(CC(C)(C)C)CC(C)(C)C [2,2,4,6,6-pentamethylheptane] + CCCCCCCCCCCCCCCC
Details	mass density [kg/m3]	speed of sound [m/s]	viscosity [mPa·s]
323.15 K, x1 = 0.1261	749.9	–	–
323.15 K, x1 = 0.2449	747.1	–	–
323.15 K, x1 = 0.4087	742.9	–	–
323.15 K, x1 = 0.562	738.6	1171.2	–
323.15 K, x1 = 0.7036	734.2	1147.2	–
323.15 K, x1 = 0.8368	729.6	1122.9	–
323.15 K, x1 = 1	723.5	1089.3	–
333.15 K, x1 = 0.1261	742.9	–	1.42
333.15 K, x1 = 0.2449	740.1	–	1.32
333.15 K, x1 = 0.4087	735.8	–	1.18
333.15 K, x1 = 0.562	731.5	–	1.06
333.15 K, x1 = 0.7036	727	–	0.944
333.15 K, x1 = 0.8368	722.3	–	0.843
333.15 K, x1 = 1	716.1	–	0.726
343.15 K, x1 = 0.1261	735.9	–	1.22
343.15 K, x1 = 0.2449	733	–	1.14
343.15 K, x1 = 0.4087	728.7	–	1.02
343.15 K, x1 = 0.562	724.4	–	0.922
343.15 K, x1 = 0.7036	719.7	–	0.827
343.15 K, x1 = 0.8368	714.9	–	0.742
343.15 K, x1 = 1	708.6	–	0.643
353.15 K, x1 = 0.1261	728.8	–	1.06
353.15 K, x1 = 0.2449	725.9	–	0.988
353.15 K, x1 = 0.4087	721.5	–	0.894
353.15 K, x1 = 0.562	717.1	–	0.81
353.15 K, x1 = 0.7036	712.3	–	0.73
353.15 K, x1 = 0.8368	707.5	–	0.658
353.15 K, x1 = 1	700.9	–	0.573
363.15 K, x1 = 0.1261	721.7	–	0.928
363.15 K, x1 = 0.2449	718.8	–	0.87
363.15 K, x1 = 0.4087	714.4	–	0.791
363.15 K, x1 = 0.562	709.8	–	0.719
363.15 K, x1 = 0.7036	704.9	–	0.651
363.15 K, x1 = 0.8368	700	–	0.589
363.15 K, x1 = 1	693.2	–	0.515
373.15 K, x1 = 0.1261	714.5	–	0.823
373.15 K, x1 = 0.2449	711.7	–	0.773
373.15 K, x1 = 0.4087	707.1	–	0.706
373.15 K, x1 = 0.562	702.5	–	0.644
373.15 K, x1 = 0.7036	697.5	–	0.585
373.15 K, x1 = 0.8368	692.3	–	0.531
373.15 K, x1 = 1	685.5	–	0.467

Reference: the NIST ThermoML archive (doi:10.1021/je400839x)
